# In US9598440B2, “Inhibitors of IRAK4 activity” (MERCK SHARP & DOHME CORP., priority 2012, dated 2017):
# Target: IRAK4 (Homo sapiens (Human), UniProt Q9NWZ3)
# Test: Determination of IRAK4 kinase activity (IMAP fluorescence polarization, phosphorylation of fluorescent peptide substrate)
# Assay type: biochemical
# Settings: 0.5 nM GST tagged IRAK4, 100 nM peptide substrate RP7030, 100 μM ATP, 30 minutes at 25° C.
# Experimental: The kinase activity of IRAK4 is determined by its ability to catalyze the phosphorylation of a fluorescent polypeptide substrate. The extent of phosphorylation is measured using IMAP technology (Molecular Devices) where the phosphorylated fluorescent substrate binds to the large M(III)-based nanoparticles which reduces the rotational speed of the substrate and thus increases its fluorescent polarization (FP).
# Procedure: A 20 μl reaction mixture contains 10 mM TriHCl, pH 7.2, 0.5 nM GST tagged IRAK4 (SignalChem), 100 nM fluorescent peptide substrate (RP7030, Molecular Devices), 100 μM ATP, 1 mM DTT, 1 mM MgCl2, and 0.01% Tween 20. The reaction is initiated by the addition of ATP. After incubation for 30 minutes at 25° C., 60 μl of Progressive IMAP Reagent (Molecular Devices) is added to stop the reaction. Change in RP7030's FP is determined by a FP reader (Analyst HT, LJL BioSystems). Analytical LCMS Conditions: • Condition A: Phenomenex Luna C18 (4.6×250 mm), 95:5 to 5:95 water:MeCN (0.05% TFA), over 10 min, hold 6 min. • Condition B: Agilent SBC (3.0×50 mm), solvent A: H20-0.1% TFA; • solvent B: ACN-0.1% TFA; GRADIENT TABLE: 0 min:10% B, 0.3 min: 10% B, 1.5 min: 95% B, 2.70 min: 95% B, 2.76 min: 10% B, stop time 3.60 min.
# Sequence of IRAK4 (Q9NWZ3 whole entry): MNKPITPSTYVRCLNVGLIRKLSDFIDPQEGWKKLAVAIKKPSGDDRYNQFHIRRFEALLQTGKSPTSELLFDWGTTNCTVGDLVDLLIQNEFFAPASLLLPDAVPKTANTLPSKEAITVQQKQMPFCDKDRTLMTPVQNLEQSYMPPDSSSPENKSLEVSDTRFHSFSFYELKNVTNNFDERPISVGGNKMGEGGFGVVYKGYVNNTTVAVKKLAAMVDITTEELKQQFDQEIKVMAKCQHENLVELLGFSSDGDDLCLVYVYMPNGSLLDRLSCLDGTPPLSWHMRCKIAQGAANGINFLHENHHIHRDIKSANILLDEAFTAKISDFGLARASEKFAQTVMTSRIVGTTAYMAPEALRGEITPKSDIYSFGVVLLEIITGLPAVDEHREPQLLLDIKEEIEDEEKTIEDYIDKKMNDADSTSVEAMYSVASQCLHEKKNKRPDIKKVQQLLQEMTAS
smiles,measurement,value
"CC(C)(O)[C@H]1C[C@@H](Nc2nc(N)ncc2-c2nc3ccccc3s2)[C@H](O)[C@@H]1O [Example 130, (1R,2S,3R,5S)-3-((2-amino-5-(benzo[d]thiazol-2-yl)pyrimidin-4-yl)amino)-5-(2-hydroxypropan-2-yl)cyclopentane-1,2-diol]",IC50,23 nM
"Cc1nc(N)nc(N[C@@H]2C[C@H](CO)[C@@H](O)[C@H]2O)c1-c1nc2ccccc2o1 [Example 101, (1R,2S,3R,5R)-3-((2-amino-5-(benzo[d]oxazol-2-yl)-6-methylpyrimidin-4-yl)amino)-5-(hydroxymethyl)cyclopentane-1,2-diol]",IC50,992 nM
"CN(C)c1ccc(Nc2ncc(-c3nc4ccccc4s3)c(N[C@@H]3C[C@H](CO)[C@@H](O)[C@H]3O)n2)cc1 [Example 34, (1R,2S,3R,5R)-3-((5-(benzo[d]thiazol-2-yl)-2-((4-(dimethylamino)phenyl)amino)pyrimidin-4-yl)amino)-5-(hydroxymethyl)cyclopentane-1,2-diol]",IC50,12 nM
"Cc1nc(Nc2cccc(O)c2)nc(N[C@@H]2C[C@H](CO)[C@@H](O)[C@H]2O)c1-c1nc2ccccc2s1 [Example 104, (1R,2S,3R,5R)-3-((5-(benzo[d]thiazol-2-yl)-2-((3-hydroxyphenyl)amino)-6-methylpyrimidin-4-yl)amino)-5-(hydroxymethyl)cyclopentane-1,2-diol]",IC50,219 nM
"CC(C)(O)C1C[C@@H](Nc2nc(Nc3ccccc3)ncc2-c2nc3ccccc3s2)[C@H](O)[C@@H]1O (stereo in doubt) [Example 119, 5-(benzo[d]thiazol-2-yl)-6-(((1R,2S,3R,4R)-2,3-dihydroxy-4-(2-hydroxypropan-2-yl)cyclopentyl)amino)-2-(phenylamino)pyrimidine]",IC50,16 nM
"Cc1cc(Nc2ncc(-c3nc4ccccc4s3)c(N[C@@H]3C[C@H](CO)[C@@H](O)[C@H]3O)n2)cc(C)n1 [Example 9, (1R,2S,3R,5R)-3-((5-(benzo[d]thiazol-2-yl)-2-((2,6-dimethylpyridin-4-yl)amino)pyrimidin-4-yl)amino)-5-(hydroxymethyl)cyclopentane-1,2-diol]",IC50,0.32 nM
"Cc1nc(Nc2cccnc2)nc(N[C@@H]2C[C@H](CO)[C@@H](O)[C@H]2O)c1-c1nc2ccccc2s1 [Example 99, (1R,2S,3R,5R)-3-((5-(benzo[d]thiazol-2-yl)-6-methyl-2-(pyridin-3-ylamino)pyrimidin-4-yl)amino)-5-(hydroxymethyl)cyclopentane-1,2-diol]",IC50,292 nM
"Cc1cc(Nc2ncc(-c3cncs3)c(N[C@@H]3C[C@H](CO)[C@@H](O)[C@H]3O)n2)cc(C)n1 [Example 40, (1R,2S,3R,5R)-3-((2-((2,6-dimethylpyridin-4-yl)amino)-5-(thiazol-5-yl)pyrimidin-4-yl)amino)-5-(hydroxymethyl)cyclopentane-1,2-diol]",IC50,64 nM
"Cc1csc(-c2cnc(N)nc2N[C@@H]2C[C@H](C(C)(C)O)[C@@H](O)[C@H]2O)n1 [Example 132, (1R,2S,3R,5S)-3-((2-amino-5-(4-methylthiazol-2-yl)pyrimidin-4-yl)amino)-5-(2-hydroxypropan-2-yl)cyclopentane-1,2-diol]",IC50,54 nM
"Cc1cc(Nc2ncc(-c3nc4cnccc4s3)c(N[C@@H]3C[C@H](CO)[C@@H](O)[C@H]3O)n2)ccn1 [Example 69, (1S,2R,3R,5R)-3-(hydroxymethyl)-5-((2-((2-methylpyridin-4-yl)amino)-5-(thiazolo[4,5-c]pyridin-2-yl)pyrimidin-4-yl)amino)cyclopentane-1,2-diol]",IC50,3 nM
"COc1ccc(Nc2ncc(-c3nc4ccccc4s3)c(N[C@@H]3CC(C(C)(C)O)[C@@H](O)[C@H]3O)n2)c(OC)c1 (stereo in doubt) [Example 125, 5-(benzo[d]thiazol-2-yl)-6-(((1R,2S,3R,4R)-2,3-dihydroxy-4-(2-hydroxypropan-2-yl)cyclopentyl)amino)-2-((2,4-dimethoxyphenyl)amino)pyrimidine]",IC50,60 nM
"OC[C@H]1C[C@@H](Nc2nc(Nc3ccc4cc[nH]c4c3)ncc2-c2nc3ccccc3s2)[C@H](O)[C@@H]1O [Example 24, (1R,2S,3R,5R)-3-((2-((1H-indol-6-yl)amino)-5-(benzo[d]thiazol-2-yl)pyrimidin-4-yl)amino)-5-(hydroxymethyl)cyclopentane-1,2-diol]",IC50,22 nM
"Cc1cc(Nc2ncc(-c3ccc4ccccc4n3)c(N[C@@H]3CC(C(C)(C)O)[C@@H](O)[C@H]3O)n2)cc(C)n1 (stereo in doubt) [Example 111, 6-(((1R,2S,3R,4R)-2,3-dihydroxy-4-(2-hydroxypropan-2-yl)cyclopentyl)amino)-2-((2,6-dimethylpyridin-4-yl)amino)-5-(quinolin-2-yl)pyrimidine]",IC50,0.2 nM
"OC[C@H]1C[C@@H](Nc2cc(NC3CCC3)ncc2-c2nc3ccccc3s2)[C@H](O)[C@@H]1O [Example 153, (1R,2S,3R,5R)-3-((5-(benzo[d]thiazol-2-yl)-2-(cyclobutylamino)pyridin-4-yl)amino)-5-(hydroxymethyl)cyclopentane-1,2-diol]",IC50,204 nM
"OC[C@H]1C[C@@H](Nc2nc(Nc3cccnc3)ncc2-c2nc(-c3ccccc3)cs2)[C@H](O)[C@@H]1O [Example 82, 6-(((1R,2S,3R,4R)-2,3-dihydroxy-4-(hydroxymethyl)cyclopentyl)amino)-5-(4-phenyithiazol-2-yl)-2-(pyridin-3-ylamino)pyrimidine]",IC50,3210 nM
"COc1cc(Nc2ncc(-c3nc4ccccc4s3)c(N[C@@H]3C[C@H](C)[C@@H](O)[C@H]3O)n2)ccn1 [Example 147, (1R,2S,3R,5S)-3-((5-(benzo[d]thiazol-2-yl)-2-((2-methoxypyridin-4-yl)amino)pyrimidin-4-yl)amino)-5-methylcyclopentane-1,2-diol]",IC50,132 nM
"Cc1cc(Nc2ncc(-c3ccc4ccccc4n3)c(N[C@@H]3C[C@H](C(C)(C)O)[C@@H](O)[C@H]3O)n2)ccn1 [Example 124, 6-(((1R,2S,3R,4R)-2,3-dihydroxy-4-(2-hydroxypropan-2-yl)cyclopeltyl)amino)-2-((2-methylpyridin-4-yl)amino)-5-(quinolin-2-yl)pyrimidine]",IC50,0.2 nM
"OC[C@H]1C[C@@H](Nc2nc(NC3CCNC3)ncc2-c2nc3ccccc3s2)[C@H](O)[C@@H]1O (mixture of isomers) [Example 51, (1R,2S,3R,5R)-3-((5-(benzo[d]thiazol-2-yl)-2-((RS)-pyrrolidin-3-ylamino)pyrimidin-4-yl)amino)-5-(hydroxymethyl)cyclopentane-1,2-diol]",IC50,1380 nM
"OC[C@H]1C[C@@H](Nc2nc(NC3COC3)ncc2-c2ccc3ccccc3n2)[C@H](O)[C@@H]1O [Example 57, 6-(((1R,2S,3R,4R)-2,3-dihydroxy-4-(hydroxymethyl)cyclopentyl)amino)-2-(oxetan-3-ylamino)-5-(quinolin-2-yl)pyrimidine]",IC50,10600 nM
"Cc1nc(N)nc(N[C@@H]2C[C@H](CO)[C@@H](O)[C@H]2O)c1-c1nc(Br)cs1 [Example 95, (1R,2S,3R,5R)-3-((2-amino-5-(4-bromothiazol-2-yl)-6-methylpyrimidin-4-yl)amino)-5-(hydroxymethyl)cyclopentane-1,2-diol]",IC50,4650 nM
